Laboratory results reported in patent publication US20240246967A1, “AXL COMPOUNDS” (ARCUS BIOSCIENCES, INC., priority 2021, published 2024).

biological target: T1, human MER (Homo sapiens, UniProt Q12866); experiment: HTRF KinEASE-TK biochemical potency assay, MER; settings: 1 nM MER, 700 μM ATP, 800 nM TK Substrate-biotin
T1 construct: purchased Invitrogen
T1 sequence (Q12866 21-999): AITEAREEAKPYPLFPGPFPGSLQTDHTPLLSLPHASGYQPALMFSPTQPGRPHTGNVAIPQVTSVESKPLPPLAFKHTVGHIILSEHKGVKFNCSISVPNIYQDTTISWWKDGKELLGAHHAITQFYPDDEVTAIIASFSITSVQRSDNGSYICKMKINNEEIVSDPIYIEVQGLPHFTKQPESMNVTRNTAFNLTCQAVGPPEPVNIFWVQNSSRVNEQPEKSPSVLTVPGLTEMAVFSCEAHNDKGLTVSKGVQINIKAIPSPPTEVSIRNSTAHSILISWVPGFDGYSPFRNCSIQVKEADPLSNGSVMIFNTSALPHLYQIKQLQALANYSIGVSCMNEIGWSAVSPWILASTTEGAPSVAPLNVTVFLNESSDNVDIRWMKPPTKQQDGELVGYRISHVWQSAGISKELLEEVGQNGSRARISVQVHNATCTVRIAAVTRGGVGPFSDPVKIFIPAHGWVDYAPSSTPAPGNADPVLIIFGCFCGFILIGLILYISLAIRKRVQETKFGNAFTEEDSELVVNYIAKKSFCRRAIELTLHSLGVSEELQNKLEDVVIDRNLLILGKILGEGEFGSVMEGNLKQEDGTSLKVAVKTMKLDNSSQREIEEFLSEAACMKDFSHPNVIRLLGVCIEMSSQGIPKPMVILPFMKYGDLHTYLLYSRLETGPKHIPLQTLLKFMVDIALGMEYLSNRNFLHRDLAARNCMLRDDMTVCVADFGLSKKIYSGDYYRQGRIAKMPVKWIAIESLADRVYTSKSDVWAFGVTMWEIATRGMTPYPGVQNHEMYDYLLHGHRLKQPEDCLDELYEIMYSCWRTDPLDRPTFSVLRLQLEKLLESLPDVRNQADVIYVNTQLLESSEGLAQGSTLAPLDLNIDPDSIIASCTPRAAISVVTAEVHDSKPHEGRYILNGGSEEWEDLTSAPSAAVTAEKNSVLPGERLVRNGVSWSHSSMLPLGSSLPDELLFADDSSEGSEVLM
Protocol: Purified recombinant human AXL, TYRO3 and MER proteins were purchased from Invitrogen™. 10 nM AXL, 2 nM TYRO3 or MER were incubated with varying concentrations of compounds in 50 mM HEPES, pH 7.4, 10 mM MgCl2, 0.01% BSA, 1 mM DTT and 2% DMSO in a total volume of 20 μl in a 384-well microplate (Corning™ #3640) at RT for 1 h. The AXL, TYRO3 and MER enzymatic reaction was initiated by transferring 10 μl of enzyme and compound mixture into 10 μl of 1.6 μM TK Substrate-biotin (HTRF® KinEASE-TK kit, Cisbio) and 1400 μM ATP pre-incubated in 50 mM HEPES, pH 7.4, 10 mM MgCl2, 0.01% BSA, 1 mM DTT in a 384-well microplate (Corning™ #3640) at RT, giving the final reaction conditions: 5 nM AXL, 1 nM TYRO3 or MER, 800 nM TK Substrate-biotin and 700 μM ATP in 50 mM HEPES, pH 7.4, 10 mM MgCl2, 0.01% BSA, 1 mM DTT and 1% DMSO with varying concentrations of compounds. Following 2 h incubation at RT, the AXL, TYRO3 and MER enzymatic reaction was stopped by transfer of 10 μl of reaction into 10 μl of detection mix (400 nM Streptavidin-XL665, 200-fold dilution TK Antibody-Cryptate and detection buffer, HTRF® KinEASE-TK kit, Cisbio) in a white 384-well microplate (Perkin Elmer, OptiPlate 384). After 1 h incubation at RT, the plate was put into a plate reader (Evision) to read at 665/620 nm (acceptor/donor) for HTRF. The value of the DMSO blank (MIN inhibition=100% activity) was used as a negative control. The positive control was established by adding 5 μl of enzyme and DMSO mixture into 10 μl of detection mix followed by addition of 5 μl of TK Substrate-biotin and ATP mixture (MAX inhibition=0% activity). To calculate the percent activity, Equation 1 was used. Ratio 665/620 is the value at a given compound concentration: […]

Row | IC50 [nM] | SMILES
1 | > 1000 | C[C@@H]1CCCN1C1(C)CCc2ccc(-c3cnc4[nH]cc(-c5ccc(S(=O)(=O)C6CC6)cc5)c4c3)cc2CC1 (stereo partly drawn) [Example 105, (2R)-1-(2-{3-[4-(Cyclopropanesulfonyl)phenyl]-1H-pyrrolo[2,3-b]pyridin-5-yl}-7-methyl-6,7,8,9-tetrahydro-5H-benzo[7]annulen-7-yl)-2-methylpyrrolidine]
2 | > 1000 | CC(C)(O)c1ccc(-c2n[nH]c3ncc(-c4ccc5c(c4)CCC4(CCCN4)CC5)cc23)cc1Cl (stereo not shown) [Example 96, 2-[2-Chloro-4-(5-{5,6,8,9-tetrahydrospiro[benzo[7]annulene-7,2′-pyrrolidin]-3-yl}-1H-pyrazolo[3,4-b]pyridin-3-yl)phenyl]propan-2-ol]
3 | 100 to 1000 | O=S(=O)(c1ccc(-c2n[nH]c3ncc(-c4ccc5c(c4)CC[C@@H](N4CCCC4)CC5)cc23)cc1)C1CC1 [Example 40, (S)-3-(4-(Cyclopropylsulfonyl)phenyl)-5-(7-(pyrrolidin-1-yl)-6,7,8,9-tetrahydro-5H-benzo[7]annulen-2-yl)-1H-pyrazolo[3,4-b]pyridine]
4 | > 1000 | C[C@@H]1CCCN1[C@H]1CCc2cc(-c3cnc4[nH]nc(-c5ccc(S(=O)(=O)C6CC6)cc5)c4c3)cnc2CC1 [Example 102, (2R)-1-[(7S)-3-{3-[4-(Cyclopropanesulfonyl)phenyl]-1H-pyrazolo[3,4-b]pyridin-5-yl}-5H,6H,7H,8H,9H-cyclohepta[b]pyridin-7-yl]-2-methylpyrrolidine]
5 | 100 to 1000 | C[C@@H]1CCCN1C1(C)CCc2ccc(-c3cnc4[nH]nc(-c5ccc(S(=O)(=O)N6CCC6)cc5)c4c3)cc2CC1 (stereo partly drawn) [Example 104, (2R)-1-(2-{3-[4-(Azetidine-1-sulfonyl)phenyl]-1H-pyrazolo[3,4-b]pyridin-5-yl}-7-methyl-6,7,8,9-tetrahydro-5H-benzo[7]annulen-7-yl)-2-methylpyrrolidine]
6 | > 1000 | O=C1CCCN1c1ccc(-c2n[nH]c3ncc(-c4ccc5c(c4)CC[C@@H](N4C6COCC4C6)CC5)cc23)cc1 [Example 122, 1-(4-{5-[(7S)-7-{3-oxa-6-azabicyclo[3.1.1]heptan-6-yl}-6,7,8,9-tetrahydro-5H-benzo[7]annulen-2-yl]-2H-pyrazolo[3,4-b]pyridin-3-yl}phenyl)pyrrolidin-2-one]
7 | 100 to 1000 | C[C@@H]1CCCN1C1CCc2ccc(-c3cnc4[nH]nc(-c5ccc(S(C)(=O)=O)cc5)c4c3)cc2CC1 (stereo partly drawn) [Example 38, 5-(7-((R)-2-Methylpyrrolidin-1-yl)-6,7,8,9-tetrahydro-5H-benzo[7]annulen-2-yl)-3-(4-(methylsulfonyl)phenyl)-1H-pyrazolo[3,4-b]pyridine]
8 | > 1000 | COCCN1CCc2ccc(-c3cnc4[nH]nc(-c5ccc(C(C)(C)O)c(Cl)c5)c4c3)cc2CC1 [Example 34, 2-(2-Chloro-4-(5-(3-(2-methoxyethyl)-2,3,4,5-tetrahydro-1H-benzo[d]azepin-7-yl)-1H-pyrazolo[3,4-b]pyridin-3-yl)phenyl)propan-2-ol]
9 | 100 to 1000 | CS(=O)(=O)N1CCC(c2n[nH]c3ncc(-c4ccc5c(c4)CCC(N4CCCC4)CC5)cc23)CC1 (stereo not shown) [Example 23, 1-Methanesulfonyl-4-{5-[7-(pyrrolidin-1-yl)-6,7,8,9-tetrahydro-5H-benzo[7]annulen-2-yl]-1H-pyrazolo[3,4-b]pyridin-3-yl}piperidine]
10 | 100 to 1000 | C[C@@H]1CCCN1C1(C)CCc2ccc(-c3cnc4[nH]nc(-c5ccc(S(=O)(=O)C6CC6)c(F)c5)c4c3)cc2CC1 (stereo partly drawn) [Example 25, (2R)-1-(2-{3-[4-(Cyclopropanesulfonyl)-3-fluorophenyl]-1H-pyrazolo[3,4-b]pyridin-5-yl}-7-methyl-6,7,8,9-tetrahydro-5H-benzo[7]annulen-7-yl)-2-methylpyrrolidine]

The next lines start with the compound.

Row | SMILES | IC50 [nM]
11 | C[C@@H]1CCCN1C1(C)CCc2ccc(-c3cnc4[nH]nc(-c5ccc(C(=O)N6CCCC6)cc5)c4c3)cc2CC1 (stereo partly drawn) [Example 118, (2R)-2-Methyl-1-(7-methyl-2-{3-[4-(pyrrolidine-1-carbonyl)phenyl]-1H-pyrazolo[3,4-b]pyridin-5-yl}-6,7,8,9-tetrahydro-5H-benzo[7]annulen-7-yl)pyrrolidine] | > 1000
12 | Cc1cc(-c2n[nH]c3ncc(-c4ccc5c(c4)CCC(N4CCCC4)CC5)cc23)ccc1C(=O)N1CCNCC1 (stereo not shown) [Example 47, 1-(2-Methyl-4-{5-[7-(pyrrolidin-1-yl)-6,7,8,9-tetrahydro-5H-benzo[7]annulen-2-yl]-1H-pyrazolo[3,4-b]pyridin-3-yl}benzoyl)piperazine] | 100 to 1000
13 | Cc1cc(-c2n[nH]c3ncc(-c4ccc5c(c4)CC[C@@H](N4CCCC4)CC5)cc23)cc(Cl)c1C(N)=O [Example 50, 2-Chloro-6-methyl-4-{5-[(7S)-7-(pyrrolidin-1-yl)-6,7,8,9-tetrahydro-5H-benzo[7]annulen-2-yl]-1H-pyrazolo[3,4-b]pyridin-3-yl}benzamide] | < 100
14 | CN(C)C(=O)c1ccc(-c2n[nH]c3ncc(-c4ccc5c(c4)CC[C@@H](N4C6COCC4C6)CC5)cc23)cc1 [Example 125, N,N-Dimethyl-4-{5-[(7S)-7-{3-oxa-6-azabicyclo[3.1.1]heptan-6-yl}-6,7,8,9-tetrahydro-5H-benzo[7]annulen-2-yl]-2H-pyrazolo[3,4-b]pyridin-3-yl}benzamide] | 100 to 1000
15 | C[C@@H]1CCCN1C1(C)CCc2ccc(-c3cnc4[nH]nc(-c5ccc(C(C)(C)O)c(Cl)c5)c4c3)cc2CC1 (stereo partly drawn) [Example 57, 2-[2-Chloro-4-(5-{7-methyl-7-[(2R)-2-methylpyrrolidin-1-yl]-6,7,8,9-tetrahydro-5H-benzo[7]annulen-2-yl}-1H-pyrazolo[3,4-b]pyridin-3-yl)phenyl]propan-2-ol] | 100 to 1000
16 | CS(=O)(=O)c1ccc(-c2n[nH]c3ncc(-c4ccc5c(c4)CCN(C4CCCC4)CC5)cc23)cc1Cl [Example 31, 7-(3-(3-Chloro-4-(methylsulfonyl)phenyl)-1H-pyrazolo[3,4-b]pyridin-5-yl)-3-cyclopentyl-2,3,4,5-tetrahydro-1H-benzo[d]azepine] | 100 to 1000
17 | COCCS(=O)(=O)c1ccc(-c2n[nH]c3ncc(-c4ccc5c(c4)CCC(C)(N4CCC[C@H]4C)CC5)cc23)cc1 (stereo partly drawn) [Example 111, (2R)-1-(2-{3-[4-(2-Methoxyethanesulfonyl)phenyl]-1H-pyrazolo[3,4-b]pyridin-5-yl}-7-methyl-6,7,8,9-tetrahydro-5H-benzo[7]annulen-7-yl)-2-methylpyrrolidine] | 100 to 1000
18 | CC1(N2CCc3ccc(-c4cnc5[nH]nc(-c6ccc(S(=O)(=O)C7CC7)cc6)c5c4)cc3CC2)CCCC1 [Example 120, 7-{3-[4-(Cyclopropanesulfonyl)phenyl]-1H-pyrazolo[3,4-b]pyridin-5-yl}-3-(1-methylcyclopentyl)-2,3,4,5-tetrahydro-1H-3-benzazepine] | > 1000
19 | COC1CCN(S(=O)(=O)c2ccc(-c3n[nH]c4ncc(-c5ccc6c(c5)CCC(C)(N5CCC[C@H]5C)CC6)cc34)cc2)CC1 (stereo partly drawn) [Example 103, 3-(4-((4-Methoxypiperidin-1-yl)sulfonyl)phenyl)-5-(7-methyl-7-((R)-2-methylpyrrolidin-1-yl)-6,7,8,9-tetrahydro-5H-benzo[7]annulen-2-yl)-1H-pyrazolo[3,4-b]pyridine] | > 1000
